Laboratory results: patent publication US20230312550A1, “N-(2-(4-CYANOTHIAZOLIDIN-3-YL)-2-OXOETHYL)-QUINOLINE-4-CARBOXAMIDES” (AstraZeneca AB, priority 2020, published 2023)
Values after ≈ are worked out from the molar mass of the structure shown.

How the values were obtained:
[1] = target: human Fibroblast activation protein alpha (hFAP) (Homo sapiens (Human), UniProt Q12884); assay: hFAP inhibition assay (tight binders); assay type: biochemical; settings: Ala-Pro-AMC 20 μM, n = 1 or geometric mean n = 2-6; also: hFAP 2.4 pM
human Fibroblast activation protein alpha (hFAP), sequence (Q12884 38-760): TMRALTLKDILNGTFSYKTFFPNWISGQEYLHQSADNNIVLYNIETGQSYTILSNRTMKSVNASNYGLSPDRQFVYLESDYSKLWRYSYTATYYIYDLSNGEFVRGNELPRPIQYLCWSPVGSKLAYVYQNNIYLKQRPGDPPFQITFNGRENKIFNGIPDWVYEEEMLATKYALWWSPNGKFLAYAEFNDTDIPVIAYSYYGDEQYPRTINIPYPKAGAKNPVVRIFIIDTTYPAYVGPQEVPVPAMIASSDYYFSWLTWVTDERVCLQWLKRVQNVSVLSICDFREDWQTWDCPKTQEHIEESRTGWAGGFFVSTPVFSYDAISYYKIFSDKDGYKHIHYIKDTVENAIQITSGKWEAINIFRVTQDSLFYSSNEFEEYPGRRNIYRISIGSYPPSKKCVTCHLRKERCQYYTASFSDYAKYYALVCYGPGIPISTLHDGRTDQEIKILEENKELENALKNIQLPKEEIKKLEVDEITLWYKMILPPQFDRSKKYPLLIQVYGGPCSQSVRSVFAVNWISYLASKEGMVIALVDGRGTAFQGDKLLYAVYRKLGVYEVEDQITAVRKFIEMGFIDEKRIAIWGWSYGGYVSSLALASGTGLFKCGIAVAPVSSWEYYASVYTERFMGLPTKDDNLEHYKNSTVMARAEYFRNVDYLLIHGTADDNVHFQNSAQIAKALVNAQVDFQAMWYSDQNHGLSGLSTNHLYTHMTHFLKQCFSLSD
Procedure: The plates were read on a PHERAstar® reader with excitation 340 nm and emission 460 nm. Data were analyzed in Genedata Screener®. IC50 values were determined by plotting % inhibition versus log compound concentration and using a one site dose response model.

[2] = Metabolic stability in rat hepatocytes (rHep); settings: n = 1 or geometric mean of n = 2-3
hFAP (M39-A757) = hFAP (M39-A757) (Homo sapiens (Human), UniProt Q12884); assay: hFAP binding assay (surface plasmon resonance); settings: SPR, 20° C.; for hFAP Binding assay k(off) / hFAP Binding assay k(on): single cycle kinetics; for Kd: n = 1 or geometric mean n = 2-4
hFAP (M39-A757), sequence (Q12884 39-757): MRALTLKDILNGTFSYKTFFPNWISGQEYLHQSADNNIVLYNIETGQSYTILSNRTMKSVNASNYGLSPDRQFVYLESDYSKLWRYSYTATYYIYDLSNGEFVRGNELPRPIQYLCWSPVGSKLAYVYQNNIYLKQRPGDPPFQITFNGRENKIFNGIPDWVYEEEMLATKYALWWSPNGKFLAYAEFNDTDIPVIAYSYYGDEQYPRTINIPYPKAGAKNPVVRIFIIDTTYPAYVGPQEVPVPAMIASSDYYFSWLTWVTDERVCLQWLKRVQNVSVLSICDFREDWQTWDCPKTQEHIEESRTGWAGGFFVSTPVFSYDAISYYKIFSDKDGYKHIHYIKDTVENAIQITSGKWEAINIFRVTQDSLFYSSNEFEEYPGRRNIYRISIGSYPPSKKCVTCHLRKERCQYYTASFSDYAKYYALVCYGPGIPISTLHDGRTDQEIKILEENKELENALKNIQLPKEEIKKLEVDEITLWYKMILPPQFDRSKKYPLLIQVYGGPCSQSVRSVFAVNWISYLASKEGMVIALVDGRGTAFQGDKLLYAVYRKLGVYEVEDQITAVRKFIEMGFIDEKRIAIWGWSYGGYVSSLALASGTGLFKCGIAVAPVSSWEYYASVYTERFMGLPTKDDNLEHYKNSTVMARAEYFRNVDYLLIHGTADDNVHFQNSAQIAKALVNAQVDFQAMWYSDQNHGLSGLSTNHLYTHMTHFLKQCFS

[3] = Metabolic stability in human liver microsomes (HLM); settings: for microsomal CLint: human
Procedure: Metabolic stability in HLM was measured as described in J Comput Aided Mol Des 2015, 29, 795.

[4] = target: Prolyl endopeptidase, Prolyl Oligopeptidase (hPREP) (Homo sapiens (Human), UniProt P48147); assay: hPrep inhibition assay; assay type: biochemical; settings: hPREP 0.6 nM, Z-Gly-Pro-amino-methylcoumarin 50 μM; read-out: PREP IC50
Prolyl endopeptidase, Prolyl Oligopeptidase (hPREP), sequence (P48147 whole entry): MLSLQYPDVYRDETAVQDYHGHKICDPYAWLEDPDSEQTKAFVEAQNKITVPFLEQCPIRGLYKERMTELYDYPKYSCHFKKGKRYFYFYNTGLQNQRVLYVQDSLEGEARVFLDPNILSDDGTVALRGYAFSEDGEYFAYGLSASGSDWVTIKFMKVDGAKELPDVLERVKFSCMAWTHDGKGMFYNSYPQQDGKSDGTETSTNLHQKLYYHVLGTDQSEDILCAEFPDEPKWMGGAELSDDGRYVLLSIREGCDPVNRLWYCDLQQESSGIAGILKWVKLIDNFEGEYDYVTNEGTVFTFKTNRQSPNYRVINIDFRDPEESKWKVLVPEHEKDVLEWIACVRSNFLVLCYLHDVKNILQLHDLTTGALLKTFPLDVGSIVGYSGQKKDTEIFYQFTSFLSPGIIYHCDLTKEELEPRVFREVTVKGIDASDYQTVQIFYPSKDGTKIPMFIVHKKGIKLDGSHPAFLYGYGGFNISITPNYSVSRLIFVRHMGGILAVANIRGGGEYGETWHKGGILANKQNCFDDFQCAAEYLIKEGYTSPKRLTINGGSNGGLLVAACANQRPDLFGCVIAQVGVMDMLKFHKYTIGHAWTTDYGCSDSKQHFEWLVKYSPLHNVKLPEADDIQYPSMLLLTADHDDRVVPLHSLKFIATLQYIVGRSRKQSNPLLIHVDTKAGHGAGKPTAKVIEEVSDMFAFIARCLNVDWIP
Procedure: Compounds were tested in a biochemical inhibition assay using Prolyl endopeptidase, Prolyl Oligopeptidase (hPREP) enzyme at 0.6 nM FAC (R&D Systems, 4308-SE) and the substrate Z-Gly-Pro-amino-methylcoumarin (Bachem, I-1145) at 50 μM FAC. 384 Low volume black plates (Greiner #784076) were used. […] Plates were incubated for 15 min at rt in dark. 4 μL, 100 μM substrate solution (25 mM Tris HCl, 250 mM NaCl, 0.01% Triton X-100, 5 mM Glutathione, pH 7.5) was added to each well. Plates were centrifuged at 1000 rpm and incubated for 20 min at rt in dark. The plates were read on a PHERAstar® reader with excitation 340 nm and emission 460 nm. Data were analyzed in Genedata Screener®. IC50 values were determined by plotting % inhibition versus log compound concentration and using a one site dose response model.

[5] = kinetic from dmso stock, Solubility, kinetic solubility, n = 1 or average of n = 2-3
[6] = HLM CLint, n = 1 or average of n = 2-3
[7] = kinetic solubility, n = 1 or average of n = 2-3

Procedure for Kinetic solubility: Kinetic solubility was measured as described in Comput Aided Mol Des 2015, 29, 795.

Compound: N#C[C@@H]1CSCN1C(=O)CNC(=O)c1ccnc2ccc(N3C[C@@H]4CCC[C@@H]43)cc12 (mixture of isomers) [Example 156, 6-((1RS,5RS)-6-Azabicyclo[3.2.0]heptan-6-yl)-N-(2-((R)-4-cyanothiazolidin-3-yl)-2-oxoethyl)quinoline-4-carboxamide]
- solubility (Kinetic solubility; [5]): 100 µM
- IC50 [1]: 0.22 nM
- rHep CLint [2]: 120 μL/min/1E6
- hFAP Binding assay k(off) (hFAP (M39-A757)): 0.000066 s⁻¹
- hFAP Binding assay k(on) (hFAP (M39-A757)): 1200000 M⁻¹ s⁻¹
- Kd (hFAP (M39-A757)): 0.056 nM
- microsomal CLint [3, 6]: 140 µL/min/mg
- IC50 [4]: 310 nM

Compound: C[C@H]1N(c2ccc3nccc(C(=O)NCC(=O)N4CSC[C@H]4C#N)c3c2)CC1(F)F (mixture of isomers) [Example 159, N-(2-((R)-4-Cyanothiazolidin-3-yl)-2-oxoethyl)-6-((RS)-3,3-difluoro-2-methylazetidin-1-yl)quinoline-4-carboxamide]
- solubility (Kinetic solubility; [5]): 550 µM
- IC50 [1]: 0.073 nM
- rHep CLint [2]: 47 μL/min/1E6
- hFAP Binding assay k(off) (hFAP (M39-A757)): 0.000092 s⁻¹
- hFAP Binding assay k(on) (hFAP (M39-A757)): 2100000 M⁻¹ s⁻¹
- Kd (hFAP (M39-A757)): 0.039 nM
- microsomal CLint [3, 6]: 61 µL/min/mg
- IC50 [4]: 280 nM

Compound: N#C[C@@H]1CSCN1C(=O)CNC(=O)c1ccnc2ccc(N3CCOC[C@@H]3C(F)(F)F)cc12 (single isomer, unassigned) [Example 84, N-(2-((R)-4-Cyanothiazolidin-3-yl)-2-oxoethyl)-6-((R*)-3-(trifluoromethyl)-morpholino)quinoline-4-carboxamide]
- solubility (Kinetic solubility; [5]): 940 µM (≈ 451 µg/mL)
- IC50 [1]: 0.074 nM
- rHep CLint [2]: 26 μL/min/1E6
- hFAP Binding assay k(off) (hFAP (M39-A757)): 0.00011 s⁻¹
- hFAP Binding assay k(on) (hFAP (M39-A757)): 1200000 M⁻¹ s⁻¹
- Kd (hFAP (M39-A757)): 0.12 nM
- HLM CLint ([3]; n = 1 or average of n = 2-3): 64 µL/min/mg
- IC50 [4]: 710 nM

Compound: N#C[C@@H]1CSCN1C(=O)CNC(=O)c1ccnc2ccc(N3CCOC[C@@H]3C(F)(F)F)cc12 (single isomer, unassigned) [Example 85, N-(2-((R)-4-Cyanothiazolidin-3-yl)-2-oxoethyl)-6-((R*)-3-(trifluoromethyl)-morpholino)quinoline-4-carboxamide]
- solubility (Kinetic solubility; [7]): 800 µM (≈ 384 µg/mL)
- IC50 [1]: 0.087 nM
- rHep CLint [2]: 35 μL/min/1E6
- hFAP Binding assay k(off) (hFAP (M39-A757)): 0.00011 s⁻¹
- hFAP Binding assay k(on) (hFAP (M39-A757)): 4000000 M⁻¹ s⁻¹
- Kd (hFAP (M39-A757)): 0.032 nM
- HLM CLint ([3]; n = 1 or average of n = 2-3): 260 µL/min/mg
- IC50 [4]: 720 nM

Compound: N#C[C@@H]1CSCN1C(=O)CNC(=O)c1ccnc2ccc(N3CCC[C@@H]3C3CC3)cc12 (single isomer, unassigned) [Example 199, N-(2-((R)-4-Cyanothiazolidin-3-yl)-2-oxoethyl)-6-((R*)-2-cyclopropyl-pyrrolidin-1-yl)quinoline-4-carboxamide]
- solubility (Kinetic solubility; [5]): 85 µM (≈ 37 µg/mL)
- IC50 [1]: 0.3 nM
- rHep CLint [2]: 250 μL/min/1E6
- hFAP Binding assay k(off) (hFAP (M39-A757)): 0.00026 s⁻¹
- hFAP Binding assay k(on) (hFAP (M39-A757)): 2300000 M⁻¹ s⁻¹
- Kd (hFAP (M39-A757)): 0.1 nM
- microsomal CLint [3, 6]: > 300 µL/min/mg
- IC50 [4]: 170 nM

Compound: N#C[C@@H]1CSCN1C(=O)CNC(=O)c1ccnc2ccc(N3CCC[C@H]3C3CC3)cc12 (single isomer, unassigned) [Example 200, N-(2-((R)-4-Cyanothiazolidin-3-yl)-2-oxoethyl)-6-((R*)-2-cyclopropyl-pyrrolidin-1-yl)quinoline-4-carboxamide]
- solubility (Kinetic solubility; [5]): 81 µM (≈ 35.3 µg/mL)
- IC50 [1]: 0.24 nM
- rHep CLint [2]: >300 μL/min/1E6
- hFAP Binding assay k(off) (hFAP (M39-A757)): 0.00023 s⁻¹
- hFAP Binding assay k(on) (hFAP (M39-A757)): 2500000 M⁻¹ s⁻¹
- Kd (hFAP (M39-A757)): 0.09 nM
- microsomal CLint [3, 6]: > 300 µL/min/mg
- IC50 [4]: 130 nM

Compound: C[C@@H]1CN(c2ccc3nccc(C(=O)NCC(=O)N4CSC[C@H]4C#N)c3c2)C[C@H]1C (single isomer, unassigned) [Example 225, N-(2-((R)-4-Cyanothiazolidin-3-yl)-2-oxoethyl)-6-((3R*,4R*)-3,4-dimethylpyrrolidin-1-yl)quinoline-4-carboxamide]
- solubility (Kinetic solubility; [7]): 2.2 µM (≈ 0.932 µg/mL)
- IC50 [1]: 0.11 nM
- rHep CLint [2]: 37 μL/min/1E6
- Kd (hFAP (M39-A757)): 0.077 nM
- microsomal CLint [3, 6]: 110 µL/min/mg
- IC50 [4]: 470 nM

Compound: C[C@@H]1CN(c2ccc3nccc(C(=O)NCC(=O)N4CSC[C@H]4C#N)c3c2)C[C@H]1C (single isomer, unassigned) [Example 226, N-(2-((R)-4-Cyanothiazolidin-3-yl)-2-oxoethyl)-6-((3R*,4R*)-3,4-dimethylpyrrolidin-1-yl)quinoline-4-carboxamide]
- solubility (Kinetic solubility; [7]): 4.5 µM (≈ 1.91 µg/mL)
- IC50 [1]: 0.2 nM
- rHep CLint [2]: 44 μL/min/1E6
- Kd (hFAP (M39-A757)): 0.044 nM
- HLM CLint ([3]; n = 1 or average of n = 2-3): 94 µL/min/mg
- IC50 [4]: 660 nM

Compound: N#C[C@@H]1CSCN1C(=O)CNC(=O)c1ccnc2ccc(N3CCOc4ccccc43)cc12 [Example 6, (R)—N-(2-(4-Cyanothiazolidin-3-yl)-2-oxoethyl)-6-(2,3-dihydro-4H-benzo[b][1,4]oxazin-4-yl)quinoline-4-carboxamide]
- solubility (Kinetic solubility; [5]): 120 µM (≈ 55.1 µg/mL)
- IC50 [1]: 0.51 nM
- rHep CLint [2]: 100 μL/min/1E6
- hFAP Binding assay k(off) (hFAP (M39-A757)): 18 s⁻¹
- hFAP Binding assay k(on) (hFAP (M39-A757)): 40000000000 M⁻¹ s⁻¹
- Kd (hFAP (M39-A757)): 0.38 nM
- IC50 [4]: 200 nM

Compound: Cc1cc2nccc(C(=O)NCC(=O)N3CSC[C@H]3C#N)c2cc1N1CCOCC1 [Example 10, (R)—N-(2-(4-Cyanothiazolidin-3-yl)-2-oxoethyl)-7-methyl-6-morpholino-quinoline-4-carboxamide]
- solubility (Kinetic solubility; [5]): 270 µM (≈ 115 µg/mL)
- IC50 [1]: 0.054 nM
- rHep CLint [2]: 41 μL/min/1E6
- hFAP Binding assay k(off) (hFAP (M39-A757)): 0.000056 s⁻¹
- hFAP Binding assay k(on) (hFAP (M39-A757)): 370000 M⁻¹ s⁻¹
- Kd (hFAP (M39-A757)): 0.15 nM
- microsomal CLint [3, 6]: 130 µL/min/mg
- IC50 [4]: 940 nM

Compound: CC1(C)CN(c2ccc3nccc(C(=O)NCC(=O)N4CSC[C@H]4C#N)c3c2)C(=O)O1 [Example 13, (R)—N-(2-(4-Cyanothiazolidin-3-yl)-2-oxoethyl)-6-(5,5-dimethyl-2-oxooxazolidin-3-yl)quinoline-4-carboxamide]
- solubility (Kinetic solubility; [5]): 27 µM (≈ 11.9 µg/mL)
- IC50 [1]: 0.041 nM
- rHep CLint [2]: 5.4 μL/min/1E6
- hFAP Binding assay k(off) (hFAP (M39-A757)): 0.000076 s⁻¹
- hFAP Binding assay k(on) (hFAP (M39-A757)): 9200000 M⁻¹ s⁻¹
- Kd (hFAP (M39-A757)): 0.014 nM
- microsomal CLint [3, 6]: 12 µL/min/mg
- IC50 [4]: 380 nM

Compound: CC1(C)CN(c2ccc3nccc(C(=O)NCC(=O)N4CSC[C@H]4C#N)c3c2)CCC1(F)F [Example 38, (R)—N-(2-(4-Cyanothiazolidin-3-yl)-2-oxoethyl)-6-(4,4-difluoro-3,3-dimethylpiperidin-1-yl)quinoline-4-carboxamide]
- solubility (Kinetic solubility; [5]): 33 µM (≈ 15.6 µg/mL)
- IC50 [1]: 0.1 nM
- rHep CLint [2]: >300 μL/min/1E6
- hFAP Binding assay k(off) (hFAP (M39-A757)): 0.000078 s⁻¹
- hFAP Binding assay k(on) (hFAP (M39-A757)): 520000 M⁻¹ s⁻¹
- Kd (hFAP (M39-A757)): 0.11 nM
- microsomal CLint [3, 6]: > 300 µL/min/mg
- IC50 [4]: 480 nM

Compound: CC(C)OC1CCN(c2ccc3nccc(C(=O)NCC(=O)N4CSC[C@H]4C#N)c3c2)CC1 [Example 43, (R)—N-(2-(4-Cyanothiazolidin-3-yl)-2-oxoethyl)-6-(4-isopropoxypiperidin-1-yl)quinoline-4-carboxamide]
- solubility (Kinetic solubility; [5]): 52 µM (≈ 24.3 µg/mL)
- IC50 [1]: 0.045 nM
- rHep CLint [2]: 9.1 μL/min/1E6
- hFAP Binding assay k(off) (hFAP (M39-A757)): 0.000019 s⁻¹
- hFAP Binding assay k(on) (hFAP (M39-A757)): 3200000 M⁻¹ s⁻¹
- Kd (hFAP (M39-A757)): 0.0061 nM
- microsomal CLint [3, 6]: 36 µL/min/mg
- IC50 [4]: 1000 nM

Compound: C[C@]1(O)CCN(c2ccc3nccc(C(=O)NCC(=O)N4CSC[C@H]4C#N)c3c2)C1 [Example 168, N-(2-((R)-4-Cyanothiazolidin-3-yl)-2-oxoethyl)-6-((S)-3-hydroxy-3-methylpyrrolidin-1-yl)quinoline-4-carboxamide]
- IC50 [1]: 0.16 nM
- hFAP Binding assay k(off) (hFAP (M39-A757)): 0.000048 s⁻¹
- hFAP Binding assay k(on) (hFAP (M39-A757)): 1600000 M⁻¹ s⁻¹
- Kd (hFAP (M39-A757)): 0.032 nM
- IC50 [4]: 630 nM

Compound: N#C[C@@H]1CSCN1C(=O)CNC(=O)c1ccnc2ccc(N3CC[C@H](CO)C3)cc12 [Example 221, N-(2-((R)-4-Cyanothiazolidin-3-yl)-2-oxoethyl)-6-((S)-3-(hydroxymethyl)-pyrrolidin-1-yl)quinoline-4-carboxamide]
- hFAP Binding assay k(off) (hFAP (M39-A757)): 0.000046 s⁻¹
- hFAP Binding assay k(on) (hFAP (M39-A757)): 8500000 M⁻¹ s⁻¹
- IC50 [4]: 410 nM

Compound: N#C[C@@H]1CSCN1C(=O)CNC(=O)c1ccnc2ccc(N3CCC4(CC3)OCCCO4)cc12 [Example 227, (R)—N-(2-(4-cyanothiazolidin-3-yl)-2-oxoethyl)-6-(1,5-dioxa-9-azaspiro[5.5]undecan-9-yl)quinoline-4-carboxamide]
- solubility (Kinetic solubility; kinetic from dmso stock): 852 µM (≈ 410 µg/mL)
- rHep CLint [2]: 2.8 μL/min/1E6
- microsomal CLint [3]: 17 µL/min/mg
- IC50 [4]: 600 nM
